In patent US20100330177A1, “PHARMACEUTICAL COMPOSITIONS OF A COMBINATION OF METFORMIN AND A DIPEPTIDYL PEPTIDASE-IV INHIBITOR” (Merck Sharp & Dohme Corp., priority 2009, published 2010):
Counter-ions that a name gives are not always drawn.

Experiments:
Type 2 diabetes = settings: oral administration, human Type 2 diabetics; cited from earlier work
[1] = in vitro dissolution profile of sitagliptin phosphate from the drug film layer; type: physicochemical; settings: FIG. 2
From the text: FIG. 2 is a graph showing in vitro dissolution profiles for sitagliptin phosphate from the drug film layer in a pharmaceutical composition of the present invention compared to sitagliptin phosphate in JANUMET™ which is a marketed fixed-dose combination of immediate-release metformin hydrochloride and immediate-release sitagliptin phosphate.

SMILES | effect on fasting glucose, postprandial glucose excursion and HbA1c (Type 2 diabetes) | dissolution compared with sitagliptin phosphate in JANUMET ([1]; sitagliptin phosphate from the drug film layer vs marketed immediate-release fixed-dose combination) | time to complete dissolution ([1]; sitagliptin phosphate from the immediate-release drug film layer of the composition) [min]
Cn1c(=O)cc(N2CCC[C@@H](N)C2)n(Cc2ccccc2C#N)c1=O [alogliptin] | reduce fasting glucose and postprandial glucose excursion in association with significantly reduced HbA1c levels | – | –
N[C@@H](CC(=O)N1CCn2c(nnc2C(F)(F)F)C1)Cc1cc(F)c(F)cc1F [sitagliptin phosphate, dihydrogenphosphate salt of (2R)-4-oxo-4-[3-(trifluoromethyl)-5,6-dihydro[1,2,4]triazolo[4,3-a]pyrazin-7(8H)-yl]-1-(2,4,5-trifluorophenyl)butan-2-amine] | – | comparable to that of sitagliptin phosphate in JANUMET™ | ≤ 30
N[C@@H](CC(=O)N1CCn2c(nnc2C(F)(F)F)C1)Cc1cc(F)c(F)cc1F [sitagliptin, (2R)-4-oxo-4-[3-(trifluoromethyl)-5,6-dihydro[1,2,4]triazolo[4,3-a]pyrazin-7(8H)-yl]-1-(2,4,5-trifluorophenyl)butan-2-amine] | reduce fasting glucose and postprandial glucose excursion in association with significantly reduced HbA1c levels | – | –
N#C[C@@H]1CCCN1C(=O)CNC12CC3CC(CC(O)(C3)C1)C2 [vildagliptin] | reduce fasting glucose and postprandial glucose excursion in association with significantly reduced HbA1c levels | – | –
